Data reported in US10280198B2, “Therapeutic agents for reducing parathyroid hormone levels” (KAI PHARMACEUTICALS, INC., priority 2009, dated 2019).
Read-outs that look alike come from different tables or passages of the source. Square brackets hold non-standard residues; d marks the D form. Peptide text beside a SMILES is read from it.

Experiments:
[1] = molecular target: T1, human calcium-sensing receptor (CaSR) (Homo sapiens, UniProt P41180); assay: In vitro cell assay in HEK-293 expressing the human calcium-sensing receptor (IP1 production); type: cell-based
T1 construct: expressed in transfected cells; host or cells: HEK 293T cells, transiently transfected (lipofectamine 2000); in some cases HEK293 cells stably transfected
T1 sequence (P41180 20-1078): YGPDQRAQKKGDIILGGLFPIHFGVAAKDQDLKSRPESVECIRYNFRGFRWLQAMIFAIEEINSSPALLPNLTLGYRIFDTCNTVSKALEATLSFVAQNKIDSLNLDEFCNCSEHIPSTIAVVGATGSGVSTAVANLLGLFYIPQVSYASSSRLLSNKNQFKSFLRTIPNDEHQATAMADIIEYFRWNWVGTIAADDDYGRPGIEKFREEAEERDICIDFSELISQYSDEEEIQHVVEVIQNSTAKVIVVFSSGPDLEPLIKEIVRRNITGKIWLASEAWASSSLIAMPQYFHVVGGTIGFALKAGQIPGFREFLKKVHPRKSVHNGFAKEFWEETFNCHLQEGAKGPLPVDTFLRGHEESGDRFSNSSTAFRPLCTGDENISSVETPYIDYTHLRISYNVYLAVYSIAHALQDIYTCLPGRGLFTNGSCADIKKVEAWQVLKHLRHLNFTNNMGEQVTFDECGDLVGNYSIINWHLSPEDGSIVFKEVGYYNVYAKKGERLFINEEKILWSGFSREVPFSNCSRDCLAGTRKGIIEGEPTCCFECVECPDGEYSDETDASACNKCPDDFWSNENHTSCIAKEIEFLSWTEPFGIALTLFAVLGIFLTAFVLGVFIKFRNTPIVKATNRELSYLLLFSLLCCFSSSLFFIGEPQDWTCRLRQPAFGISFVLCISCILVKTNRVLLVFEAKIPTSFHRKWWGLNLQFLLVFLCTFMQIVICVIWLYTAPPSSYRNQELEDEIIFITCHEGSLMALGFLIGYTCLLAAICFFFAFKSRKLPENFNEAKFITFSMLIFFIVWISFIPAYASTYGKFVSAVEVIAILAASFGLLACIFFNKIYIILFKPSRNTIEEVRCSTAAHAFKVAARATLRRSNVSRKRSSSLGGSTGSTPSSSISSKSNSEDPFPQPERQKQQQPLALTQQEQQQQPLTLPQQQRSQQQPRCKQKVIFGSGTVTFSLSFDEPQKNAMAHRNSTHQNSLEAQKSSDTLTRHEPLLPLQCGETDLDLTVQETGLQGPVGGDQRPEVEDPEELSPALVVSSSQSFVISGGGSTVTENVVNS
Protocol: The activity of a variety of peptides and conjugates was tested against the human CaSR. These studies were conducted by measuring IP1 production in HEK293 cells that express the human CaSR. Each peptide was tested in eight different concentrations, in duplicates, to establish a dose response curve. Curve fitting was performed using GraphPad Prism. In Table 5, and throughout the specification, residues provided in capital letters are L-amino acids, while lower case letters indicate D-amino acids. “Ac” indicates an acetyl capping group, “NH2” indicates an amide capping group, “Ac-bAla” is an acetylated beta-alanine, “GSH” indicates reduced glutathione, “GS” indicates oxidized glutathione, “PEG” refers to polyethylene glycol, “PEG2” and “PEGS” refer to polyethylene glycol moieties of 2 kDa and 5 kDa, respectively, and “Mpa” refers to mercaptopropionic acid.
The day after, these cells were transfected with human CaSR receptor using lipofectamine 2000 transfection reagent 24 hrs post transfection, cells were seeded in 384 well plates at 8,000 cells/well. […] In some cases, EC50 values were determined by measuring inositol monophosphate production in the HEK293 cells, stably transfected with the human calcium-sensing receptor (see Table 1).
Cells were incubated with compounds at various concentrations (1 mM or 300 μM as the highest and further ½ log serial dilutions) at 37° C. for 1.5 hrs before reaction termination. […] In brief, incubation with the compound was terminated by sequentially adding D2 labeled-IP1 and cryptate-labeled anti-IP1 in lysis buffer and further incubating at room temperature for 60 minutes. […] Non-transfected 293 cells were used as negative control.
IP1 concentrations were calculated from standard curves (generated with Graph Pad Prism ver. 4) using known concentrations of IP1 standards.

plasma PTH [2] = assay: 1K1C rat model of acute renal insufficiency, plasma PTH after dosing; type: in vivo; details: 1K1C rats, 3 mg/kg 30-minute IV infusion, FIG. 1
Excerpt: A rat model of acute renal insufficiency (also referred to as the 1K1C model) was developed to simulate the pathology of SHPT associated with end stage renal disease. […] The development of this model allowed for the further characterization of described compounds in the context of a subject with renal dysfunction and elevated PTH. Typical baseline PTH levels in this model averaged ˜450 pg/mL.
The ensuing ischemia/reperfusion (I/R) damage to the remaining kidney results in significant necrosis and renal failure. Serum creatinine levels were elevated for over 24-48 hours following I/R insult (data not shown). […] By 48 hours post-I/R, plasma PTH levels were elevated to ˜450 pg/mL (˜5 fold increase) and in some instances reach as high as ˜1200 pg/mL. This reproducible increase in serum creatinine and PTH provided a robust model that mimics the physiology seen ESRD patients.
The protocol used in this study is as follows. Male Sprague Dawley rats were purchased from Charles River Laboratories (Hollister, Calif.; requested purchase weight 250-275 g). […] Animals were maintained in a temperature-controlled environment with a constant 12 hours light/12 hours dark cycle and free access to food and water at all times. All experimental procedures with animals were performed according to IACUC guidelines.
General anesthesia was induced and maintained by intraperitoneal (IP) injection of sodium pentobarbital (5.2%, 0.4 mL/rat). For animals that received 45 minutes of renal ischemia an additional IP injection of sodium pentobarbital (5.2%, 0.1 mL/rat) was given to maintain the anesthetic plane. Blood sampling for PTH measurements following administration of compounds in normal rats was done under continuous isoflurane anesthesia.
For model development studies, the left femoral vein was cannulated with a PE-10 tube for blood drawing. Both kidneys were exposed via a laparotomy. A right nephrectomy was performed after the right renal pedicle and ureter were ligated with double 2-0 silk sutures. After confirmation of non-bleeding in the right pedicle, the left renal artery was carefully dissected and clamped with a micro vascular clip to induce left renal global ischemia. Renal ischemia was confirmed by observation of a global white-grey color change (blanching). The abdominal incision was temporarily covered with gauze to help maintain the temperature of the abdominal organs. After 45 minutes, the designated period of ischemia, the clip was removed and left renal artery flow was considered restored upon observation of a global restoration of red color. The abdominal incision was closed in layers with 2-0 silk sutures. The animal was then recovered from anesthesia. Physiological parameters including body temperature (36-37.5° C.) and body weight were measured throughout the procedure. Body temperature was monitored and maintained using a heat pad rectal probe feedback system.
Approximately 48 hours after the 1K1C surgery (I/R injury), animals were dosed with various compounds to measure effects on plasma PTH and calcium. In most cases, test articles were administered by IV infusion (infusion time 5, 10 or 30 minutes) although in some studies compounds were administered by IV bolus or subcutaneous (SC) bolus injection. For drug administration and blood draws, animals were anesthetized with isoflurane.

[3] = test system: rat peritoneal mast cells; assay: In vitro histamine induction in rat peritoneal mast cells; type: cell-based
Method in brief: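 Mast cells from peritoneal lavage of Sprague Dawley rats were incubated with compound at 10 μM for 15 min at 37 °C in HBSS + 25 mM HEPES pH 7.4. Supernatant histamine measured by EIA; response expressed as fold change versus pre-incubation levels.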

plasma PTH [4] = assay: In vivo PTH lowering after IV bolus in isoflurane-anesthetized normal Sprague Dawley rats; set-up: species or system rat; details: for % PTH reduction of baseline at 1 hour post IV admin. of 0.5 mg/kg compound / % PTH reduction of baseline at 1 hour post IV administration of 0.5 mg/kg compound: isoflurane-anesthetized normal rats, 0.5 mg/kg IV
Method in brief: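 Peptides were given as a 0.5 mg/kg IV bolus to normal Sprague Dawley rats kept under isoflurane throughout, with saline bolus controls.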

plasma histamine = details: rat
Protocol: For the in vivo evaluation of histamine release, compounds were dosed in isoflurane-anesthetized normal rats at 2 mg/kg by IV bolus (administered over less than one minute). Plasma histamine was measured 5 minutes after compound administration (Cayman histamine EIA #589651).

[5] = Table 5, IP1 production in HEK293 cells expressing human CaSR, eight concentrations in duplicate, read-out: EC50 in CaSR in vitro assay
[6] = Table 1, IP1 in HEK293 cells expressing human CaSR, read-out: In vitro EC50
[7] = Table 1, normal rats, PTH at 1, 2, 3, 4 h, AUCcmpd treated/AUCsaline control*100
[8] = Table 2, normal rats, AUC 1-4 h

EC50 [1, 5] [µM] | Histamine in vitro Fold change of non-treated at 10 uM [3] [fold] | EC50 [1, 6] [µM] | Histamine response in vivo Fold change from pre-dose levels 5′ post injection 2 mg/kg IV bolus (plasma histamine) [fold] | Compound | % PTH reduction of baseline at 1 hour post IV admin. of 0.5 mg/kg compound (plasma PTH [4]; Table 1) [%] | 0.5 mg/kg IV bolus % PTH AUC of saline control (plasma PTH [4]; [7]) [%] | % PTH reduction of baseline at 1 hour post IV administration of 0.5 mg/kg compound (plasma PTH [4]; Table 2) [%] | 0.5 mg/kg IV bolus % PTH AUC of saline control (plasma PTH [4]; [8]) [%] | also measured
1.1 | 4.1 | 1.1 | – | CC(=O)N[C@H](CS)C(=O)N[C@H](CCCNC(=N)N)C(=O)N[C@H](CCCNC(=N)N)C(=O)N[C@H](CCCNC(=N)N)C(=O)N[C@H](CCCNC(=N)N)C(=O)N[C@H](CCCNC(=N)N)C(=O)N[C@H](C)C(N)=O [SEQ ID NO: 13, Ac-crrrrra-NH2] (Ac-[dC][dR][dR][dR][dR][dR][dA]-NH2) | 4 | 28 | – | – | –
– | 1.1 | – | 1.0 | CC(=O)N[C@H](CS)C(=O)N[C@H](CCCNC(=N)N)C(=O)N[C@H](C)C(=O)N[C@H](CCCNC(=N)N)C(=O)N[C@H](CCCNC(=N)N)C(=O)N[C@H](CCCNC(=N)N)C(=O)N[C@H](C)C(N)=O [SEQ ID NO: 20, Ac-crarrra-NH2] (Ac-[dC][dR][dA][dR][dR][dR][dA]-NH2) | – | – | 45 | 69 | –
– | – | – | 0.9 | CC(=O)N[C@H](CS)C(=O)N[C@H](CCCNC(=N)N)C(=O)N[C@H](CCCNC(=N)N)C(=O)N[C@H](C)C(=O)N[C@H](CCCNC(=N)N)C(=O)N[C@H](C)C(=O)N[C@H](CCCNC(=N)N)C(N)=O [SEQ ID NO: 25, Ac-crrarar-NH2] (Ac-[dC][dR][dR][dA][dR][dA][dR]-NH2) | – | – | – | – | –

Continued, compound first:

Compound | EC50 [1, 5] [µM] | Histamine in vitro Fold change of non-treated at 10 uM [3] [fold] | EC50 [1, 6] [µM] | Histamine response in vivo Fold change from pre-dose levels 5′ post injection 2 mg/kg IV bolus (plasma histamine) [fold] | % PTH reduction of baseline at 1 hour post IV admin. of 0.5 mg/kg compound (plasma PTH [4]; Table 1) [%] | 0.5 mg/kg IV bolus % PTH AUC of saline control (plasma PTH [4]; [7]) [%] | % PTH reduction of baseline at 1 hour post IV administration of 0.5 mg/kg compound (plasma PTH [4]; Table 2) [%] | 0.5 mg/kg IV bolus % PTH AUC of saline control (plasma PTH [4]; [8]) [%] | also measured
CC(=O)N[C@H](CS)C(=O)N[C@H](CCCNC(=N)N)C(=O)N[C@H](CCCNC(=N)N)C(=O)N[C@H](CCCNC(=N)N)C(=O)N[C@H](CCCNC(=N)N)C(=O)N[C@H](CCCNC(=N)N)C(N)=O [SEQ ID NO: 5, Ac-crrrrr-NH2] (Ac-[dC][dR][dR][dR][dR][dR]-NH2) | 2.5 | – | – | – | – | – | – | – | mean PTH reduction at the 24 hour time point (plasma PTH [2]): 60%
CC(=O)N[C@H](CS)C(=O)N[C@H](CCCNC(=N)N)C(=O)N[C@H](CCCNC(=N)N)C(=O)N[C@H](CCCNC(=N)N)C(=O)N[C@H](C)C(=O)N[C@H](CCCNC(=N)N)C(=O)N[C@H](CCCNC(=N)N)C(N)=O [SEQ ID NO: 11, Ac-crrrarr-NH2] (Ac-[dC][dR][dR][dR][dA][dR][dR]-NH2) | 5.9 | 5.0 | 5.9 | – | 9 | 45 | – | – | –
CC(=O)N[C@H](CS)C(=O)N[C@H](CCCNC(=N)N)C(=O)N[C@H](CCCNC(=N)N)C(=O)N[C@H](CCCNC(=N)N)C(=O)N[C@H](CCCNC(=N)N)C(=O)N[C@H](C)C(=O)N[C@H](CCCNC(=N)N)C(N)=O [SEQ ID NO: 12, Ac-crrrrar-NH2] (Ac-[dC][dR][dR][dR][dR][dA][dR]-NH2) | 0.45 | 5.0 | 0.45 | – | 3 | 3 | – | – | duration of decreased PTH (plasma PTH [4]; 0.5 mg/kg IV bolus, normal rats, FIG. 5): at least four hours
CC(=O)N[C@H](CS)C(=O)N[C@H](C)C(=O)N[C@H](CCCNC(=N)N)C(=O)N[C@H](CCCNC(=N)N)C(=O)N[C@H](CCCNC(=N)N)C(=O)N[C@H](CCCNC(=N)N)C(=O)N[C@H](C)C(N)=O [SEQ ID NO: 19, Ac-carrrra-NH2] (Ac-[dC][dA][dR][dR][dR][dR][dA]-NH2) | – | 1.3 | – | 0.9 | – | – | 29 | 72 | –
CC(=O)N[C@H](CS)C(=O)N[C@H](CCCNC(=N)N)C(=O)N[C@H](C)C(=O)N[C@H](CCCNC(=N)N)C(=O)N[C@H](CCCNC(=N)N)C(=O)N[C@H](C)C(=O)N[C@H](CCCNC(=N)N)C(N)=O [SEQ ID NO: 23, Ac-crarrar-NH2] (Ac-[dC][dR][dA][dR][dR][dA][dR]-NH2) | – | 1.5 | – | 0.8 | – | – | 0 | 43 | –
CC(=O)N[C@H](CS)C(=O)N[C@H](C)C(=O)N[C@H](CCCNC(=N)N)C(=O)N[C@H](CCCNC(=N)N)C(=O)N[C@H](CCCNC(=N)N)C(=O)N[C@H](CCC(=O)O)C(=O)N[C@H](CCCNC(=N)N)C(N)=O [SEQ ID NO: 68, Ac-carrrer-NH2] (Ac-[dC][dA][dR][dR][dR][dE][dR]-NH2) | 62 | 1.3 | – | – | – | – | – | – | 0.5 mg/kg IV bolus % PTH AUC of saline control (plasma PTH [4]; Table 6, normal rats, AUC 1-4 h): 81%
